US20250041304A1 (Eli Lilly and Company, priority 2021, published 2025)
Like-named read-outs stand apart in the source and are kept apart here.

Columns and labels:
[1] = tested on: HE; assay: clinical studies of baricitinib for treating HE (Example 2, with Davos Biosciences GmbH); assay type: in vivo, human; conditions: daily dosage of 4 mg
[2] = tested on: patients with HE; conditions: cited from earlier work; for HE severity after treatment / HECSI score after treatment: after 16 weeks; for HE severity after treatment: 'severe' at start

CCS(=O)(=O)N1CC(CC#N)(n2cc(-c3ncnc4[nH]ccc34)cn2)C1 [baricitinib, {1-(ethylsulfonyl)-3-[4-(7H-pyrrolo[2,3-d]pyrimidin-4-yl)-1H-pyrazol-1-yl]azetidin-3-yl}acetonitrile]
efficacy in HE (photographic images and additional clinical data) [1]: effective
treatment outcome of two patients with HE ([2]; 4 mg tablet once per day): successfully treated
HE severity after treatment ([2]; case 1: severe hyperkeratotic HE, 4 mg once per day): almost clear
HECSI score after treatment ([2]; case 1, 4 mg once per day, HECSI 55 (severe) at start): 4
tolerability / side effects ([2]; case 1, 4 mg once per day): no side effects occurred
quality of life (QOLHEQ) after treatment ([2]; case 1, improved from "strongly impaired"): not at all impaired
HE severity after treatment ([2]; case 2: severe AD with severe atopic HE, 4 mg per day tapered to 2 mg per day at 12 weeks): almost clear
HECSI score after treatment ([2]; case 2, 4 mg per day tapered to 2 mg at 12 weeks, HECSI 47 (severe) at start): 8
adverse event leading to discontinuation ([2]; case 2, at 16 weeks): bacterial corneal ulcer
quality of life (QOLHEQ) after treatment ([2]; case 2, improved from "moderately impaired"): not at all impaired
